# Measured values reported in US9688710B2, “Inhibitors of sodium glucose cotransporter 1” (LEXICON PHARMACEUTICALS, INC., priority 2012, dated 2017).
# Legend:
# [1] = molecular target: Human sodium/glucose co-transporter type 2 (SGLT2) (Homo sapiens (Human), UniProt P31639); assay: In vitro human SGLT2 inhibition assay (14C-AMG uptake); assay type: cell-based; details: HEK293 cells expressing human HA-SGLT2, 14C-AMG uptake
# Procedure, shortened: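 Uptake of 14C-AMG (100 nCi) was followed in a stable HEK293 HA-SGLT2 line over 1-2 h at 37 °C with or without compound. Buffer: 140 mM NaCl, 10 mM HEPES, 5 mM Tris, 1 mg/mL BSA, pH 7.3. Readout was scintillation counting after washing.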
# [2] = molecular target: Human sodium/glucose co-transporter type 1 (SGLT1) (Homo sapiens (Human), UniProt P13866); assay: In vitro human SGLT1 inhibition assay (14C-AMG uptake); assay type: cell-based; details: HEK293 cells expressing human HA-SGLT1, 14C-AMG uptake
# Sequence of Human sodium/glucose co-transporter type 1 (SGLT1) (P13866 whole entry): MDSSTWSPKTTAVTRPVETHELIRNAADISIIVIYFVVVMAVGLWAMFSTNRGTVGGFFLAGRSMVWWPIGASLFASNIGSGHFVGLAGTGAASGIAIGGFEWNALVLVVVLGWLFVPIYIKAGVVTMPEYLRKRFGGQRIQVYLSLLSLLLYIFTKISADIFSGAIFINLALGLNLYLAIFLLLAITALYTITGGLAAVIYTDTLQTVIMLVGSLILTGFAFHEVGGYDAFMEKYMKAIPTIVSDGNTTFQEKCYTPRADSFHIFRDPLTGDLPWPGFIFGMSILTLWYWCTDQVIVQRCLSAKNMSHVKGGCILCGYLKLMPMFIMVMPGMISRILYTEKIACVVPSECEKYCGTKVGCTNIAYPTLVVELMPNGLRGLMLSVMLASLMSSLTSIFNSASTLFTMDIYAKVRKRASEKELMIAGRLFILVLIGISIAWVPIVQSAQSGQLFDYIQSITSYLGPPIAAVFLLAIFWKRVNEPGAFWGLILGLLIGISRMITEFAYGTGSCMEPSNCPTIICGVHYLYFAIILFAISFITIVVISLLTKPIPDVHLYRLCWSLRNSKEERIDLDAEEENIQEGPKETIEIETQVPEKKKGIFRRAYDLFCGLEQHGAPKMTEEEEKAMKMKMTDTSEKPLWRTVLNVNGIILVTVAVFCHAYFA
# Procedure, shortened: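 Uptake of 14C-AMG (100 nCi) was measured by scintillation counting after 1–2 h at 37 °C, 5% CO2, with or without compound. The buffer was pH 7.3 with 140 mM NaCl, 1 mM CaCl2, 1 mM MgCl2 and 1 mg/mL BSA. Cells were a stable HEK293 line carrying HA-SGLT1 (human), plated overnight at 30,000 per well.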
# Sequence of Human sodium/glucose co-transporter type 2 (SGLT2) (P31639 whole entry): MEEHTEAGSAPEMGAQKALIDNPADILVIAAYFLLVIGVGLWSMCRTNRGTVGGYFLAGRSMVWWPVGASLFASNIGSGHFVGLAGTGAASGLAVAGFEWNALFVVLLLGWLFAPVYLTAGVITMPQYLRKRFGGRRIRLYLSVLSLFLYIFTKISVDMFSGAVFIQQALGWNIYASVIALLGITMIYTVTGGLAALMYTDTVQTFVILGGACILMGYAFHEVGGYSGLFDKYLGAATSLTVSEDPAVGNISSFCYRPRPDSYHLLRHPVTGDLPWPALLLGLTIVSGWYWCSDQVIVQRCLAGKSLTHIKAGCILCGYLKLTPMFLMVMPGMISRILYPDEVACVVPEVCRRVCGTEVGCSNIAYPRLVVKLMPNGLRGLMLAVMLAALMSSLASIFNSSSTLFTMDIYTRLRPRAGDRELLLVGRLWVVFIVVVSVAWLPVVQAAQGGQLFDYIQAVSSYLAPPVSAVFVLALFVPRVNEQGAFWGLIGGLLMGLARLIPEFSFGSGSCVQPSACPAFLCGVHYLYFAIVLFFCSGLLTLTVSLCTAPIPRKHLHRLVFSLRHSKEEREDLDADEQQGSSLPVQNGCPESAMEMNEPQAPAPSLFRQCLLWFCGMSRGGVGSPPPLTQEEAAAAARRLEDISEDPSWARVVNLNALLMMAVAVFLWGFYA
IC50 [1] [nM],IC50 [2] [nM],SMILES
< 10,< 10,"CS[C@H]1O[C@@H](c2ccc(C)c(Cc3ccc(OCCCC(=O)NC(CO)(CO)CO)cc3)c2)[C@H](O)[C@@H](O)[C@@H]1O [N-(1,3-dihydroxy-2-(hydroxymethyl)propan-2-yl)-4-(4-(2-methyl-5-((2S,3R,4R,5S,6R)-3,4,5-trihydroxy-6-(methylthio)tetrahydro-2H-pyran-2-yl)benzyl)phenoxy)butanamide]"
< 10,< 10,"CS[C@H]1O[C@@H](c2ccc(C)c(Cc3ccc(CCCC(=O)NC(CO)(CO)CO)cc3)c2)[C@H](O)[C@@H](O)[C@@H]1O [N-(1,3-dihydroxy-2-(hydroxymethyl)propan-2-yl)-4-(4-(2-methyl-5-((2S,3R,4R,5S,6R)-3,4,5-trihydroxy-6-(methylthio)tetrahydro-2H-pyran-2-yl)benzyl)phenyl)butanamide]"
< 10,< 10,"CS[C@H]1O[C@@H](c2ccc(C)c(Cc3ccc(CCCCC(=O)NC(CO)(CO)CO)cc3)c2)[C@H](O)[C@@H](O)[C@@H]1O [N-(1,3-dihydroxy-2-(hydroxymethyl)propan-2-yl)-5-(4-(2-methyl-5-((2S,3R,4R,5S,6R)-3,4,5-trihydroxy-6-(methylthio)tetrahydro-2H-pyran-2-yl)benzyl)phenyl)pentanamide]"
< 10,< 100,"CS[C@H]1O[C@@H](c2ccc(C)c(Cc3ccc(CCCCCC(=O)NC(CO)(CO)CO)cc3)c2)[C@H](O)[C@@H](O)[C@@H]1O [N-(1,3-dihydroxy-2-(hydroxymethyl)propan-2-yl)-6-(4-(2-methyl-5-((2S,3R,4R,5S,6R)-3,4,5-trihydroxy-6-(methylthio)tetrahydro-2H-pyran-2-yl)benzyl)phenyl)hexanamide]"
< 10,< 100,"CS[C@H]1O[C@@H](c2ccc(C)c(Cc3ccc(CCCCCCC(=O)NC(CO)(CO)CO)cc3)c2)[C@H](O)[C@@H](O)[C@@H]1O [N-(1,3-dihydroxy-2-(hydroxymethyl)propan-2-yl)-7-(4-(2-methyl-5-((2S,3R,4R,5S,6R)-3,4,5-trihydroxy-6-(methylthio)tetrahydro-2H-pyran-2-yl)benzyl)phenyl)heptanamide]"
< 100,< 100,"CS[C@H]1O[C@@H](c2ccc(C)c(Cc3ccc(OCCCC(=O)NC(C)(CO)CO)cc3)c2)[C@H](O)[C@@H](O)[C@@H]1O [N-(1,3-dihydroxy-2-methylpropan-2-yl)-4-(4-(2-methyl-5-((2S,3R,4R,5S,6R)-3,4,5-trihydroxy-6-(methylthio)tetrahydro-2H-pyran-2-yl)benzyl)phenoxy)butanamide]"
< 10,< 10,"CS[C@H]1O[C@@H](c2ccc(C)c(Cc3ccc(OCCCC(=O)NC(CO)CO)cc3)c2)[C@H](O)[C@@H](O)[C@@H]1O [N-(1,3-dihydroxypropan-2-yl)-4-(4-(2-methyl-5-((2S,3R,4R,5S,6R)-3,4,5-trihydroxy-6-(methylthio)tetrahydro-2H-pyran-2-yl)benzyl)phenoxy)butanamide]"
< 10,< 10,"CS[C@H]1O[C@@H](c2ccc(C)c(Cc3ccc(CCCC(=O)NC(C)(C)C(=O)N4CCN(CCO)CC4)cc3)c2)[C@H](O)[C@@H](O)[C@@H]1O [N-(1-(4-(2-hydroxyethyl)piperazin-1-yl)-2-methyl-1-oxopropan-2-yl)-4-(4-(2-methyl-5-((2S,3R,4R,5S,6R)-3,4,5-trihydroxy-6-(methylthio)tetrahydro-2H-pyran-2-yl)benzyl)phenyl)butanamide]"
< 10,< 100,"CS[C@H]1O[C@@H](c2ccc(C)c(Cc3ccc(OCCCC(=O)NC(C)(C)C(=O)N(C)CCN(C)C)cc3)c2)[C@H](O)[C@@H](O)[C@@H]1O [N-(1-((2-(dimethylamino)ethyl)(methyl)amino)-2-methyl-1-oxopropan-2-yl)-4-(4-(2-methyl-5-((2S,3R,4R,5S,6R)-3,4,5-trihydroxy-6-(methylthio)tetrahydro-2H-pyran-2-yl)benzyl)phenoxy)butanamide]"
